In series [1] the test system is MCF-7 cells. The experiment in a line: cells. It counts as cell-based, human. The note with it: for IC50: Homo sapiens, MCF7, MTT, 24 h incubation, MCF-7 cells, read-out: MCF7 IC50; for MCF7 TI (IC50 WI-38 / IC50 MCF-7): therapeutic index, ratio of WI-38 IC50 to MCF-7 IC50. As to the method:
(§1) Cells were obtained from the ATCC Company (VACSERA), Cairo, Egypt. MTT assay were performed according to the literature method. More details are in the Supporting Information.
(§2) Recently, OSe compounds gained much attention as possible drug candidates due to their various pharmacological properties. […] Therefore, the anticancer attributes of the newly prepared OSe compounds were estimated using the MTT assay against MCF-7 and HepG2 and compared with their respective cytotoxicity in WI-38 primary cells. The anthracycline drug doxorubicin was used as the standard. […] Moreover, the therapeutic index (TI) was also calculated (according to Equation (1)), which is considered a measure of the selectivity and safety of the synthesized compounds. (1) TI=IC50 for the normal WI38 cells/IC50 for the cancer cells […]
(§3) 1.1. The biological assays
(§4) 1.1.1. The anticancer activity
(§5) The breast adenocarcinoma (MCF-7), Hepatocellular carcinoma (HEPG-2), and nor-mal fibroblast (WI-38) cells were obtained from ATCC via Holding company for biological products and vaccines (VACSERA), Cairo, Egypt.
(§6) DMSO, and fetal bovine serum was obtained from Sigma Aldrich. Dulbecco’s modified Eagle’s medium was used as the culture medium for the cells, and the cytotoxicity was evaluated using the reported MTT assay. Doxorubicin was used as the positive reference, and the IC50 values were obtained from the corresponding dose-response curve.
(§7) This colorimetric assay is based on converting the yellow tetrazolium bromide (MTT) to a purple formazan derivative by mitochondrial succinate dehydrogenase in viable cells. […]
(§8) added were 100 units/ml penicillin and 100µg/ml streptomycin at 37 C in a 5% Co2 incu-bator. The cell lines were seeded in a 96-well plate at a density of 1.0x10^4 cells/well. at 37 C for 48 h under 5% Co2. After incubation, the cells were treated with different concentra-tions of compounds and incubated for 24 h. After 24 h of drug treatment, 20 µl of MTT solution at 5mg/ml was added and incubated for 4 h. Finally, dimethyl sulfoxide (DMSO) in the volume of 100 µl is added to each well to dissolve the purple formazan formed. The colorimetric assay is measured and recorded at an absorbance of 570 nm using a plate […]
(§9) The percentage of the relative cell viability was calculated as (A570 of treated samples/A570 of the untreated sample) X 100. […]

For series [2], the system named is WI-38 cells. The experiment in a line: cells. Conditions: Homo sapiens; MTT, 24 h incubation, normal WI-38 cells; read-out: WI38 IC50. The format is cell-based, human. The method, then: as §1, §2, §3, §4, §5, §6, §7, §8, §9
Series [3] relates to HepG2 cells. The experiment in a line: cells. The format is cell-based, human. The note with it: for IC50: Homo sapiens, MTT, 24 h incubation, HepG2 cells, read-out: HepG2 IC50; for HepG2 TI (IC50 WI-38 / IC50 HepG2): therapeutic index, ratio of WI-38 IC50 to HepG2 IC50. As to the method: as §1
Recently, OSe compounds gained much attention as possible drug candidates due to their various pharmacological properties. Our group has reported several OSe candidates with potential anticancer, antimicrobial, and antioxidant activities. Therefore, the anticancer attributes of the newly prepared OSe compounds were estimated using the MTT assay against MCF-7 and HepG2 and compared with their respective cytotoxicity in WI-38 primary cells. The anthracycline drug doxorubicin was used as the standard. The minimal inhibition concentration required to kill 50% of the cells (IC50) was calculated from dose-response curves presented in Table 1. Moreover, the therapeutic index (TI) was also calculated (according to Equation (1)), which is considered a measure of the selectivity and safety of the synthesized compounds. (1) TI=IC50 for the normal WI38 cells/IC50 for the cancer cells […]
as §3, §4
The breast adenocarcinoma (MCF-7), Hepatocellular carcinoma (HEPG-2), and nor-mal fibroblast (WI-38) cells were obtained from ATCC via Holding company for biological products and vaccines (VACSERA), Cairo, Egypt. The reagents RPMI-1640 medium, MTT, DMSO, and fetal bovine serum was obtained from Sigma Aldrich. Dulbecco’s modified Eagle’s medium was used as the culture medium for the cells, and the cytotoxicity was evaluated using the reported MTT assay. Doxorubicin was used as the positive reference, and the IC50 values were obtained from the corresponding dose-response curve.
This colorimetric assay is based on converting the yellow tetrazolium bromide (MTT) to a purple formazan derivative by mitochondrial succinate dehydrogenase in viable cells.
Cell lines were cultured in RPMI-1640 medium with 10% fetal bovine serum. Antibiotics added were 100 units/ml penicillin and 100µg/ml streptomycin at 37 C in a 5% Co2 incu-bator. The cell lines were seeded in a 96-well plate at a density of 1.0x10^4 cells/well. at 37 C for 48 h under 5% Co2. After incubation, the cells were treated with different concentra-tions of compounds and incubated for 24 h. After 24 h of drug treatment, 20 µl of MTT solution at 5mg/ml was added and incubated for 4 h. Finally, dimethyl sulfoxide (DMSO) in the volume of 100 µl is added to each well to dissolve the purple formazan formed. The colorimetric assay is measured and recorded at an absorbance of 570 nm using a plate reader (EXL 800, USA). The percentage of the relative cell viability was calculated as (A570 of treated samples/A570 of the untreated sample) X 100. […]
(§10) Inhibition%= (Ablank-Asample)/(Ablank)*100. (1)

For series [4], the system named is Escherichia coli. The experiment in a line: Agar diffusion assay, E. coli. It counts as cell-based. Conditions: for zone of inhibition at 20 µM: Escherichia coli, inhibition zone diameter, six-mm disks soaked with 20 μM of compound, read-out: E. coli IZD (mm); for E. coli A% (activity index): zone of test compound / zone of standard (ampicillin) x 100. Background: Agar diffusion results depend on both activity and mobility in agar.

Series [5] deals with Staphylococcus aureus. Briefly: Agar diffusion assay, S. aureus. It counts as cell-based. The note with it: for zone of inhibition at 20 µM: Staphylococcus aureus, inhibition zone diameter, six-mm disks soaked with 20 μM of compound, read-out: S. aureus IZD (mm); for S. aureus A% (activity index): zone of test compound / zone of standard (ampicillin) x 100. As to the method:
(§11) The antimicrobial activities of the OSe compounds were evaluated against C. albicans yeast, as well as E. coli and S. bacteria, employing the agar well diffusion assay. Furthermore, the MICs (in µM) were determined by the microdilution method according to the reported protocol. More details are in the Supporting Information.
(§12) Compounds were evaluated for their antimicrobial activity against the Gram-negative bacteria Escherichia coli (E. coli) and the Gram-positive bacteria Staphylococcus aureus (S. aureus), as well as the Candida albicans (C. albicans) fungal strain, using the agar diffusion assay. Ampicillin and clotrimazole were used as standards. Indeed, the antimicrobial properties of the OSe compounds were also obtained from the activity index percentage (A%) according to Equation (2). (2) A%=Zone of inhibition by test compound diametre/Zone of inhibition by standard diametre×100 . […]
(§13) 1.1.1. The antimicrobial activity
The antimicrobial activities of the OSe compounds were evaluated against C. albicans yeast as well as E. coli gram-negative and S. aureus gram-positive bacteria employing the agar well diffusion assay. Briefly, a concentration of 1 mM was prepared for each compound by dissolving in DMSO. Paper discs of standard size […] were steri-lized in an autoclave and soaked in 20 µL of the test compounds, and placed in the Petri dishes, which in turn contain a nutrient media (agar 20 g, peptone 5 g, and beef extract 3 g) seeded with the dedicated strain. Incubation lasted for 24 h at 36
(§14) Furthermore, the MICs (in µM) were determined by the microdilution method according to the reported protocol. […]
as §10

Series [6] concerns Candida albicans. The experiment in a line: microbe, parasite or virus in culture. The format is cell-based. Conditions: for zone of inhibition at 20 µM: Candida albicans, inhibition zone diameter, six-mm disks soaked with 20 μM of compound, read-out: C. albicans IZD (mm); for C. albicans A% (activity index): zone of test compound / zone of standard (clotrimazole) x 100. As to the method:
as §11, §12, §13
The antimicrobial activities of the OSe compounds were evaluated against C. albicans yeast as well as E. coli gram-negative and S. aureus gram-positive bacteria employing the agar well diffusion assay. […]
compound by dissolving in DMSO. […]
Petri dishes, which in turn contain a nutrient media (agar 20 g, peptone 5 g, and beef extract 3 g) seeded with the dedicated strain. Incubation lasted for 24 h at 36
as §14, §10

A value given as a limit tells only on which side of the number the result lay.

For orientation: IC50 means the concentration that inhibits the measured activity by half. The melting point is the temperature of the solid-liquid transition. With `O=C(C[Se]c1ccc(N2C(=O)c3ccccc3C2=O)cc1)Nc1ccccc1` [Compound 12, 2-((4-(1,3-dioxoisoindolin-2-yl)phenyl)selanyl)-N-phenylacetamide], the melting point lay within 261 to 262 °C. Further, the concentration for half-maximal inhibition (IC50) in series [1] was greater than 100 µM. In addition, the IC50 in series [2] was greater than 100 µM. For the same molecule, the IC50 in series [3] is greater than 100 µM. Besides, in series [4], the zone of inhibition at 20 µM is 6 mm and the “E. coli A% (activity index)” value came to 26%. For the same molecule, in series [5], the zone of inhibition at 20 µM stood at 8 mm and the “S. aureus A% (activity index)” value worked out at 38%. In addition, in series [6], the zone of inhibition at 20 µM is 7 mm and the “C. albicans A% (activity index)” value was 29%.

Molecule `CC(=O)Nc1ccc([Se]CC(=O)Nc2ccccc2)cc1` [Compound 18, 2-((4-acetamidophenyl)selanyl)-N-phenylacetamide] returned a melting point of 161 to 162 °C. Besides, in series [1], the IC50 was determined as 43.5 ± 2.6 µM and the “MCF7 TI (IC50 WI-38 / IC50 MCF-7)” value came to 2. Besides, in series [2], the IC50 is 85.1 ± 4.7 µM. Besides, in series [3], the IC50 amounted to 47.6 ± 2.8 µM and the “HepG2 TI (IC50 WI-38 / IC50 HepG2)” value stood at 1.8. Besides, in series [4], the zone of inhibition at 20 µM came out at 6 mm and the “E. coli A% (activity index)” value is 26%. Moreover, the zone of inhibition at 20 µM in series [5] was 8 mm. Also, in series [6], the zone of inhibition at 20 µM stood at 11 mm and the “C. albicans A% (activity index)” value amounted to 46%.

In turn, `CN(C)C=Nc1ccc([Se]CC(=O)Nc2ccccc2)cc1` [Compound 20, 2-((4-(((dimethylamino)methylene)amino)phenyl)selanyl)-N-phenylacetamide] came in with a melting point of 118 to 120 °C. For the same molecule, in series [1], the IC50 stood at 36.8 ± 2.4 µM and the “MCF7 TI (IC50 WI-38 / IC50 MCF-7)” value came to 2.7. Also, the half-maximal inhibitory concentration (IC50) in series [2] was greater than 100 µM. Further, in series [3], the IC50 was found to be 40.3 ± 2.5 µM and the “HepG2 TI (IC50 WI-38 / IC50 HepG2)” value amounted to 2.5. Besides, in series [4], the zone of inhibition at 20 µM turned out to be 8 mm and the “E. coli A% (activity index)” value is 35%. In addition, in series [5], the zone of inhibition at 20 µM was 9 mm and the “S. aureus A% (activity index)” value was determined as 43%. In series [6], the zone of inhibition at 20 µM came to 11 mm and the “C. albicans A% (activity index)” value is recorded as 46%.

The record behind these values is PMC9312238, “Novel Organoselenium Redox Modulators with Potential Anticancer, Antimicrobial, and Antioxidant Activities” (Antioxidants, 2022).
